Results as given in patent US12012417B2, “N-substituted tetrahydrothienopyridine derivatives and uses thereof” (NOVARTIS AG, priority 2018, dated 2024).
Structures can show the parent of a compound that is named as a salt.

Assays:
[1] = test system: Dengue 1 virus MY97-10245; assay: High-content imaging cell-based flavivirus immunodetection (HCl-CFI) assay, Dengue 1; conditions: Dengue virus, A549, 48 h, read-out: Dengue 1 virus MY97-10245 in A549 using HCl [Inhibitor/IC50] Qualified AC50
[2] = test system: Dengue 2 virus MY97-10340; assay: High-content imaging cell-based flavivirus immunodetection (HCl-CFI) assay, Dengue 2; conditions: Dengue virus, A549, 48 h, read-out: Dengue 2 virus MY97-10340 in A549 using HCl [Inhibitor/IC50] Qualified AC50, A549 cells, MOI 0.3, 48 h, viral E protein expression
Method in brief: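 A549 cells infected at MOI 0.3, treated with 3-fold, 10-point compound dilutions for 48 h. After paraformaldehyde fixation, viral E protein immunostained with 4G2 antibody and nuclei counterstained; imaged by high-content imaging. EC50 = concentration reducing E protein expression by 50%, from dose-response curves.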

[3] = test system: Dengue 3 virus MY05-34640-WT-C6/36; assay: High-content imaging cell-based flavivirus immunodetection (HCl-CFI) assay, Dengue 3; conditions: Dengue virus, A549, 48 h, read-out: Dengue 3 virus MY05-34640-WT-C6/36 in A549 using HCl [Inhibitor/IC50] Qualified AC50
[4] = test system: Dengue 4 virus MY01-22713; assay: High-content imaging cell-based flavivirus immunodetection (HCl-CFI) assay, Dengue 4; conditions: Dengue virus, A549, 48 h, read-out: Dengue 4 virus MY01-22713 in A549 using HCl [Inhibitor/IC50] Qualified AC50, A549 cells, 48 h, viral E protein expression

In the case of N#Cc1c(NC(=O)Cc2ccc3c(c2)CNS3(=O)=O)sc2c1CN(CC1CC(F)(F)C1)CC2 [Example 52, N-(3-cyano-5-((3,3-difluorocyclobutyl)methyl)-4,5,6,7-tetrahydrothieno[3,2-c]pyridin-2-yl)-2-(1,1-dioxido-2,3-dihydrobenzo[d]isothiazol-5-yl)acetamide], the EC50 [1] is reported as > 1000 nM, the EC50 [2] is reported as 100 to 1000 nM and the EC50 [3] is reported as 100 to 1000 nM. For the same compound, the EC50 [4] was 100 to 1000 nM.
For CC1Cc2sc(NC(=O)Cc3ccc(S(N)(=O)=O)cc3)c(C#N)c2CN1CC1CC(F)(F)C1 (stereo not drawn) [Example 56, N-(3-cyano-5-((3,3-difluorocyclobutyl)methyl)-6-methyl-4,5,6,7-tetrahydrothieno[3,2-c]pyridin-2-yl)-2-(4-sulfamoylphenyl)acetamide], the EC50 [1] was > 1000 nM, the EC50 [2] was 100 to 1000 nM and the EC50 [3] was 100 to 1000 nM. The EC50 [4] was < 100 nM.
CC1Cc2sc(NC(=O)Cc3ccc(S(=O)(=O)NCC4CC(F)(F)C4)cc3)c(C#N)c2CN1CC1CC(F)(F)C1 (stereo not drawn) [Example 57, N-(3-cyano-5-((3,3-difluorocyclobutyl)methyl)-6-methyl-4,5,6,7-tetrahydrothieno[3,2-c]pyridin-2-yl)-2-(4-(N-((3,3-difluorocyclobutyl)methyl)sulfamoyl)phenyl)acetamide] was tested, and the EC50 [1] was > 1000 nM, the EC50 [2] was 100 to 1000 nM and the EC50 [3] was > 1000 nM. It also gave an EC50 [4] of 100 to 1000 nM.
CC1Cc2sc(NC(=O)Cc3ccc(C(N)=O)cc3)c(C#N)c2CN1Cc1cccc(F)c1 (stereo not drawn) [Example 58, 4-(2-((3-cyano-5-(3-fluorobenzyl)-6-methyl-4,5,6,7-tetrahydrothieno[3,2-c]pyridin-2-yl)amino)-2-oxoethyl)benzamide] was tested, and the EC50 [1] was 100 to 1000 nM, the EC50 [2] was < 100 nM and the EC50 [3] was < 100 nM. The EC50 [4] was < 100 nM.
For CC1Cc2sc(NC(=O)Cc3ccc(S(N)(=O)=O)cc3)c(C#N)c2CN1CC1CCCC1 (stereo not drawn) [Example 59, N-(3-cyano-5-(cyclopentylmethyl)-6-methyl-4,5,6,7-tetrahydrothieno[3,2-c]pyridin-2-yl)-2-(4-sulfamoylphenyl)acetamide hydrochloride], the EC50 [1] was > 1000 nM, the EC50 [2] was 100 to 1000 nM and the EC50 [3] was 100 to 1000 nM. For the same compound, the EC50 [4] was 100 to 1000 nM.
CC1Cc2sc(NC(=O)Cc3ccc(S(N)(=O)=O)cc3)c(C#N)c2CN1CC1CCC1 (stereo not drawn) [Example 60, N-(3-cyano-5-(cyclobutylmethyl)-6-methyl-4,5,6,7-tetrahydrothieno[3,2-c]pyridin-2-yl)-2-(4-sulfamoylphenyl)acetamide] was tested, and the EC50 [1] was > 1000 nM, the EC50 [2] was 100 to 1000 nM and the EC50 [3] was 100 to 1000 nM. The EC50 [4] was 100 to 1000 nM.
In the case of CC1Cc2sc(NC(=O)Cc3ccc(S(=O)(=O)NCC4CCCC4)cc3)c(C#N)c2CN1CC1CCCC1 (stereo not drawn) [Example 61, N-(3-cyano-5-(cyclopentylmethyl)-6-methyl-4,5,6,7-tetrahydrothieno[3,2-c]pyridin-2-yl)-2-(4-(N-(cyclopentylmethyl)sulfamoyl)phenyl)acetamide], the EC50 [1] is reported as > 1000 nM, the EC50 [2] is reported as 100 to 1000 nM and the EC50 [3] is reported as > 1000 nM. The EC50 [4] was > 1000 nM.
In the case of CC1Cc2sc(NC(=O)Cc3ccc(S(N)(=O)=O)cc3)c(C#N)c2CN1CC1CCCCC1 (stereo not drawn) [Example 62, N-(3-cyano-5-(cyclohexylmethyl)-6-methyl-4,5,6,7-tetrahydrothieno[3,2-c]pyridin-2-yl)-2-(4-sulfamoylphenyl)acetamide], the EC50 [1] is reported as 100 to 1000 nM, the EC50 [2] is reported as < 100 nM and the EC50 [3] is reported as < 100 nM. For the same compound, the EC50 [4] was < 100 nM.
With CC1Cc2sc(NC(=O)Cc3ccc(S(=O)(=O)NCC4CCCCC4)cc3)c(C#N)c2CN1CC1CCCCC1 (stereo not drawn) [Example 63, N-(3-cyano-5-(cyclohexylmethyl)-6-methyl-4,5,6,7-tetrahydrothieno[3,2-c]pyridin-2-yl)-2-(4-(N-(cyclohexylmethyl)sulfamoyl)phenyl)acetamide] the EC50 [1] was > 1000 nM, the EC50 [2] was 100 to 1000 nM and the EC50 [3] was 100 to 1000 nM. It also gave an EC50 [4] of 100 to 1000 nM.
CC1Cc2sc(NC(=O)Cc3ccc(S(N)(=O)=O)cc3)c(C#N)c2CN1Cc1cc(Cl)ccc1Cl (stereo not drawn) [Example 64, N-(3-cyano-5-(2,5-dichlorobenzyl)-6-methyl-4,5,6,7-tetrahydrothieno[3,2-c]pyridin-2-yl)-2-(4-sulfamoylphenyl)acetamide] was tested, and the EC50 [1] was < 100 nM, the EC50 [2] was < 100 nM and the EC50 [3] was < 100 nM. For the same compound, the EC50 [4] was < 100 nM.
With CC1Cc2sc(NC(=O)Cc3ccc(S(N)(=O)=O)cc3)c(C#N)c2CN1CCc1ccccc1 (stereo not drawn) [Example 67, N-(3-cyano-6-methyl-5-phenethyl-4,5,6,7-tetrahydrothieno[3,2-c]pyridin-2-yl)-2-(4-sulfamoylphenyl)acetamide] the EC50 [1] was > 1000 nM, the EC50 [2] was < 100 nM and the EC50 [3] was < 100 nM. For the same compound, the EC50 [4] was < 100 nM.
In the case of CC1Cc2sc(NC(=O)Cc3ccc(S(N)(=O)=O)cc3)c(C#N)c2CN1CCC1CCCCC1 (stereo not drawn) [Example 68, N-(3-cyano-5-(2-cyclohexylethyl)-6-methyl-4,5,6,7-tetrahydrothieno[3,2-c]pyridin-2-yl)-2-(4-sulfamoylphenyl)acetamide], the EC50 [1] is reported as 100 to 1000 nM, the EC50 [2] is reported as < 100 nM and the EC50 [3] is reported as < 100 nM. For the same compound, the EC50 [4] was < 100 nM.
In the case of CC1Cc2sc(NC(=O)Cc3ccc(S(C)(=O)=O)cc3)c(C#N)c2CN1Cc1cccc(F)c1 (stereo not drawn) [Example 69, N-(3-cyano-5-(3-fluorobenzyl)-6-methyl-4,5,6,7-tetrahydrothieno[3,2-c]pyridin-2-yl)-2-(4-(methylsulfonyl)phenyl)acetamide], the EC50 [1] is reported as 100 to 1000 nM, the EC50 [2] is reported as < 100 nM and the EC50 [3] is reported as < 100 nM. The EC50 [4] was < 100 nM.
In the case of CC1Cc2sc(NC(=O)Cc3ccc(S(C)(=O)=O)cc3)c(C#N)c2CN1Cc1cc(Cl)ccc1Cl (stereo not drawn) [Example 70, N-(3-cyano-5-(2,5-dichlorobenzyl)-6-methyl-4,5,6,7-tetrahydrothieno[3,2-c]pyridin-2-yl)-2-(4-(methylsulfonyl)phenyl)acetamide], the EC50 [1] is reported as 100 to 1000 nM, the EC50 [2] is reported as < 100 nM and the EC50 [3] is reported as < 100 nM. For the same compound, the EC50 [4] was < 100 nM.
CC1(C)CS(=O)(=O)c2ccc(CC(=O)Nc3sc4c(c3C#N)CN(CC3CCCCC3)C(C)(C)C4)cc21 [Example 72, N-(3-cyano-5-(cyclohexylmethyl)-6,6-dimethyl-4,5,6,7-tetrahydrothieno[3,2-c]pyridin-2-yl)-2-(3,3-dimethyl-1,1-dioxido-2,3-dihydrobenzo[b]thiophen-5-yl)acetamide] was tested, and the EC50 [1] was < 100 nM, the EC50 [2] was < 100 nM and the EC50 [3] was < 100 nM. For the same compound, the EC50 [4] was < 100 nM.
For CC1(C)Cc2sc(NC(=O)Cc3ccccc3)c(C#N)c2CN1CC1CCCCC1 [Example 73, N-(3-cyano-5-(cyclohexylmethyl)-6,6-dimethyl-4,5,6,7-tetrahydrothieno[3,2-c]pyridin-2-yl)-2-phenylacetamide], the EC50 [1] was 100 to 1000 nM, the EC50 [2] was 100 to 1000 nM and the EC50 [3] was 100 to 1000 nM. For the same compound, the EC50 [4] was 100 to 1000 nM.
For CC1(C)Cc2sc(NC(=O)Cc3ccc4c(c3)C(CN)CS4(=O)=O)c(C#N)c2CN1CC1CCCCC1 (stereo not drawn) [Example 74, 2-(3-(aminomethyl)-1,1-dioxido-2,3-dihydrobenzo[b]thiophen-5-yl)-N-(3-cyano-5-(cyclohexylmethyl)-6,6-dimethyl-4,5,6,7-tetrahydrothieno[3,2-c]pyridin-2-yl)acetamide], the EC50 [1] was 100 to 1000 nM, the EC50 [2] was 100 to 1000 nM and the EC50 [3] was 100 to 1000 nM. For the same compound, the EC50 [4] was 100 to 1000 nM.
For CN(C(=O)Cc1ccc(S(N)(=O)=O)cc1)c1sc2c(c1C#N)CN(CC1CCCCC1)C(C)(C)C2 [Example 75, N-(3-cyano-5-(cyclohexylmethyl)-6,6-dimethyl-4,5,6,7-tetrahydrothieno[3,2-c]pyridin-2-yl)-N-methyl-2-(4-sulfamoylphenyl)acetamide], the EC50 [1] was > 1000 nM, the EC50 [2] was > 1000 nM and the EC50 [3] was > 1000 nM. The EC50 [4] was > 1000 nM.
